Data on six compounds can be found in patent publication US4866069A, “Substance 4181-2 and its derivatives having anti-leukemia activity” (Taiho Pharmaceutical Company, Limited, priority 1986, dated 1989).

Structures are written as SMILES. In brackets after ≈: the same amount, converted by molar mass.

For one data set, the system named is leukemia P388 cells. The data set can be described thus: Antitumor activity: life span-prolonging effect in mouse leukemia. It is filed as in vivo, BDF1 mice. The note with it: for % Increase in survival time / Mean survival time: 3 mg/kg intraperitoneally, day after i.p. injection of 1×10^6 P388 cells, BDF1 mice; for % Increase in survival time: ((D/D0)-1)×100 vs untreated; for Mean survival time: untreated control 9.3 ± 0.8 days. As to the method:
The antitumor activity of Substance 4181-2 and its derivatives was evaluated in terms of the increase in life span. One ×10^6 of leukemia P388 cells were intraperitoneally injected to BDF1 mice. Each group consisted of 6 mice. On the following day, each of Compounds 1-4, suspended in 0.2% solution of Tween 80 in physiological saline, was administered intraperitoneally and the survival time in days was determined. The percent increase in survival time was calculated by means of the following formula.
Percent increase in survival time=((D/D0)-1)×100 wherein D0 stands for the mean survival time (days) in the untreated group and D stands for the mean survival time (days) in the treated group.

Data set [1] is described as follows: Acute toxicity study (up-and-down method). More on the design: species or system mice of ddY strain. To be noted: mouse, in vivo, ip, intraperitoneal, male ddY mice, 25 g. As to the method: Male mice of ddY strain (body weight 25 g) were used. Each of Compounds 1-4 was suspended in 0.2% solution of Tween 80 in physiological saline and administered intraperitoneally to the animals. The LD50 values (mg/kg) were determined by the up-and-down method.

The conditions of data set [2]: literature statement; cited from earlier work.
For data set [3], the system named is microorganisms including gram-positive bacteria, gram-negative bacteria and fungi. In words: Antimicrobial activity (summary statement). Type of data set: cell-based. As to the method:
(§1) The antibacterial and antifungal spectra of Substance 4181-2 were investigated. Using nutrient agar medium for gram-positive and gram-negative bacteria and Sabouraud's agar medium for fungi, the minimal inhibitory concentration (MIC) was determined by a two-fold serial dilution method.

In data set [4] the test system is Escherichia coli B IFO 13168. In words: Antimicrobial spectrum (MIC), two-fold serial dilution. Type of data set: cell-based. The note with it: IFO13168, nutrient agar medium. As to the method:
as §1

The test system of data set [5] is Proteus vulgalis IFO 3045. The description is as above. The note with it: nutrient agar medium. It is filed as cell-based. As to the method:
as §1

Data set [6] has as its system Aspergillus niger IFO 6341. The description is as above. It is filed as cell-based. To be noted: IFO6341, Sabouraud's agar medium. As to the method: as §1
Data set [7] has as its system Candida albicans IFO 1061. Described as above. It is filed as cell-based. To be noted: IFO1061, Sabouraud's agar medium. As to the method:
as §1

For data set [8], the system named is Micrococcus flavus ATCC 10240. The data set is described as above. Type of data set: cell-based. To be noted: ATCC10240, nutrient agar medium. As to the method:
as §1

Data set [9] relates to Klebsiella pneumoniae ATCC 10031. Described as above. Type of data set: cell-based. To be noted: ATCC10031, nutrient agar medium. As to the method: as §1
The test system of data set [10] is Penicillium notatum IFO 4640. Described as above. To be noted: Penicillium chrysogenum, IFO4640, Sabouraud's agar medium. Type of data set: cell-based. As to the method:
as §1

The subject of data set [11] is Staphylococcus aureus 209P. Described as above. It is filed as cell-based. To be noted: nutrient agar medium. As to the method:
as §1

In data set [12] the test system is Pseudomonus fluorescens IFO 12180. The description is as above. Type of data set: cell-based. The note with it: nutrient agar medium. As to the method: as §1
Data set [13] has as its system Saccharomyces delbrueckii IAM 12236. The data set is described as above. It is filed as cell-based. The note with it: Torulaspora delbrueckii, IAM12236, Sabouraud's agar medium. As to the method:
as §1

Data set [14] relates to Bacillus subtilis ATCC 6633. The description is as above. Type of data set: cell-based. To be noted: ATCC6633, nutrient agar medium. As to the method: as §1
For data set [15], the system named is Trichophyton mentagrophytes IFO 5466. The description is as above. It is filed as cell-based. To be noted: IFO5466, Sabouraud's agar medium. As to the method: as §1

What is called LD50 is the dose at which mortality reaches 50%. A higher LD50 goes with a less toxic substance. As to `COc1cc2oc3c(c(=O)c2cc1OC)C(=O)c1c(ccc2cc4c(c(OC(C)=O)c12)C(=O)N1CCOC1(C)C4)C3=O` (stereo not shown) [Compound 4, monomethyl monoacetyl derivative of Substance 4181-2], in the data set with leukemia P388 cells, the “% Increase in survival time” value came to 53% and the Mean survival time is reported as 14.2 ± 0.8 days. The compound further yielded a 50% lethal dose (LD50) in data set [1] not below 40 mg/kg.

Turning to `COc1cc2oc3c(O)c4ccc5cc6c(c(O)c5c4c(O)c3c(=O)c2cc1OC)C(=O)N1CCOC1(C)C6` (stereo not shown) [cervinomycin A1], the “antimicrobial activity (in words)” value in data set [2] is listed as “have antimicrobial activity”.

Take `COc1cc2oc3c(c(=O)c2cc1OC)C(=O)c1c(ccc2cc4c(c(O)c12)C(=O)N1CCOC1(C)C4)C3=O` (stereo not shown) [Compound 3, monomethyl derivative of Substance 4181-2]: in the data set on leukemia P388 cells, the “% Increase in survival time” value amounted to 63% and the Mean survival time came to 15.2 ± 1.7 days. In [1], this compound gave a 50% lethal dose (LD50) not below 40 mg/kg.

In the case of `COc1cc2oc3c(c(=O)c2cc1OC(C)=O)C(=O)c1c(ccc2cc4c(c(OC(C)=O)c12)C(=O)N1CCOC1(C)C4)C3=O` (stereo not shown) [Compound 2, diacetyl derivative of Substance 4181-2], in the data set with leukemia P388 cells, the “% Increase in survival time” value is given as 59% and the Mean survival time is given as 14.8 ± 0.8 days. Also, the LD50 in data set [1] is not below 40 mg/kg.

Consider `COc1cc2oc3c(c(=O)c2cc1OC)C(=O)c1c(ccc2cc4c(c(O)c12)C(=O)N1CCOC1(C)C4)C3=O` (stereo not shown) [cervinomycin A2], for which the “antimicrobial activity (in words)” value in data set [2] is recorded as “have antimicrobial activity”.

For orientation: MIC means the lowest concentration found to suppress growth. A low value points to inhibition by little substance. As for `COc1cc2oc3c(c(=O)c2cc1O)C(=O)c1c(ccc2cc4c(c(O)c12)C(=O)N1CCOC1(C)C4)C3=O` (stereo not shown) [Compound 1, Substance 4181-2], the “% Increase in survival time” value with leukemia P388 cells is given as 94%. Also, the Mean survival time with leukemia P388 cells was 18.0 ± 1.4 days. Further, the “antitumor activity (in words)” value in the data set on leukemia P388 cells (summary statement) is “excellent antitumor activity”. In addition, in [1], the median lethal dose (LD50) was not below 40 mg/kg. In addition, in data set [3], the “antimicrobial spectrum (in words)” value is recorded as “broad antimicrobial spectrum”. Also, the minimum inhibitory concentration (MIC) worked out at 1.56 µg/mL (≈ 3.04 µM) in data set [4]; 0.39 µg/mL (≈ 0.76 µM) in data set [5]; 3.13 µg/mL (≈ 6.1 µM) in [6]; 0.39 µg/mL (≈ 0.76 µM) in [7]; 0.2 µg/mL (≈ 0.39 µM) in [8]; 3.13 µg/mL (≈ 6.1 µM) in data set [9]. Further, the MIC in data set [10] came to 1.56 µg/mL (≈ 3.04 µM); in data set [11] it was 0.2 µg/mL (≈ 0.39 µM); in data set [12] it was 0.2 µg/mL (≈ 0.39 µM); in data set [13] it was 1.56 µg/mL (≈ 3.04 µM); in [14], 0.2 µg/mL (≈ 0.39 µM); in data set [15], 0.78 µg/mL (≈ 1.52 µM).
